Assay results from patent US11351178B2, “Selective HDAC6 inhibitors” (ITALFARMACO S.P.A., priority 2017, dated 2022).

Key:
[1] = biological target: T1, recombinant human HDAC6 (Homo sapiens, UniProt Q9UBN7); test: Enzymatic screening on recombinant human HDAC6; assay type: biochemical; conditions: Table 2; read-out: HDAC6 IC50
T1 sequence (Q9UBN7 1-1215): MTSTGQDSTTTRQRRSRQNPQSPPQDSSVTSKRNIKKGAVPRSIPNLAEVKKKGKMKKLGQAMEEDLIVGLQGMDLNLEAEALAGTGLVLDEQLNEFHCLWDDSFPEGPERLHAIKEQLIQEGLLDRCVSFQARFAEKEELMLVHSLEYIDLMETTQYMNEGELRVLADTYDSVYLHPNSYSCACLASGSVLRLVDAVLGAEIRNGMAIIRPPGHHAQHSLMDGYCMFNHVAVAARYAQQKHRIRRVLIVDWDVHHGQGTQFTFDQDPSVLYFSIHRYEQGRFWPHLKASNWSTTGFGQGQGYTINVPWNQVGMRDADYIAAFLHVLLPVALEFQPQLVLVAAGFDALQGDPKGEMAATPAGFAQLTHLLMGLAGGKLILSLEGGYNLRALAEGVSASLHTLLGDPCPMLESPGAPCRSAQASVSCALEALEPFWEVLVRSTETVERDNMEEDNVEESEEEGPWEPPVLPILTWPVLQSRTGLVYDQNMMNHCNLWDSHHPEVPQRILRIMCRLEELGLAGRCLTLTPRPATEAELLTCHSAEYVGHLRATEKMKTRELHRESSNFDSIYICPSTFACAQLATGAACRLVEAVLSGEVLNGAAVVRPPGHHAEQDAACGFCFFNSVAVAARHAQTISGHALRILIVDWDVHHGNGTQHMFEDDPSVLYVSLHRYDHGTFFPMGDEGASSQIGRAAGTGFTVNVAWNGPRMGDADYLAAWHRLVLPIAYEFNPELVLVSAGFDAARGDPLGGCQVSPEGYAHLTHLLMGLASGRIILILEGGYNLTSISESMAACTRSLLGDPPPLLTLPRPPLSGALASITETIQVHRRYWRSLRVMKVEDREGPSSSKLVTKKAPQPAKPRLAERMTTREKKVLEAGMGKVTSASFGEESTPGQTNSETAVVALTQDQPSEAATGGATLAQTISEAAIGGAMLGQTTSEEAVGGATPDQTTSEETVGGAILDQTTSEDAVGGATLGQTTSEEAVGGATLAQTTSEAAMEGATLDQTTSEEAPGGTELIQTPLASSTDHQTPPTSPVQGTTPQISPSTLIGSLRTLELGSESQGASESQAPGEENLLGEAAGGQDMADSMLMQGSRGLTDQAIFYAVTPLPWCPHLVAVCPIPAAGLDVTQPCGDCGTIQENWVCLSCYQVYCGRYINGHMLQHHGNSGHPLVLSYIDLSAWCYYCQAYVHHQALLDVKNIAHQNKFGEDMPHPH
In short: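 Buffer for substrate addition: 25 mM Tris-HCl pH 8, 130 mM NaCl, 0.05% Tween-20, 10% glycerol, substrate 2× concentrated (FdL, FdL-Green or trifluoroacetyl-lysine). Recombinant human HDAC was preincubated with compound at 30 °C beforehand, timing isoform-dependent, and the reaction was likewise run at 30 °C.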

[2] = test system: B 697 promyelocytic cell line; test: Cytotoxicity on 697 cell line (CellTiter 96); assay type: cell-based; conditions: 72 hours incubation, read-out: 697 TOXICITY
Experimental: Cytotoxic activity was evaluated on B 697 […] cell line for all synthesized compounds and on peripheral blood mononuclear cells (PBMCs) for compounds showing a good potency/selectivity profile.
Cells were seeded in plate (2×10^4 cells per well for 697, 5×10^5 cells per well for PBMCs). The test compounds (concentrations from 1.5 nM to 10000 nM for PBMCs and from 1 nM to 10000 nM for 697) were added after 24 hours and incubated 72 hours. The molecules cytotoxic activity was evaluated using CellTiter 96© Aqueous One Solution Cell Proliferation Assay (Promega), which measures the mitochondria function, following the manufacturer's instructions.

[3] = Stability to Phase I metabolism in rat S9 liver fraction; assay type: in vitro ADME; conditions: after 90 min, 37° C.
Experimental: Test compounds were incubated in rat and human liver S9 fraction at 37° C. up to 90 minutes in order to evaluate their stability to Phase I metabolism by hepatic enzymes. […] The reaction was stopped placing samples on ice bath and adding acidified acetonitrile. After centrifugation (10 minutes at 14000 rpm) an aliquot of the supernatant was diluted water, filtered with 0.45 μm regenerated cellulose syringe filters and injected in HPLC-UV or in LC-MS/MS. The percentages of the amount remaining at the various incubation times with respect to the initial amount were calculated. The intrinsic clearance was also calculated.

[4] = Stability in rat plasma; assay type: in vitro ADME; conditions: after 4 hours, 37° C.
Experimental: In order to evaluate the stability to circulating enzymes, test compounds were incubated in human and rat plasma at 37° C. in a thermostated oscillating bath. Each test compound was incubated at μM (50 μM when the samples were analysed by UV/HPLC, 1 or 2 μM when the samples were analysed by LC-MS/MS) concentration for 0, 15, 30 min and 1, 2 and 4 hours. The reaction was stopped placing tubes on ice bath and adding acidified acetonitrile. After centrifugation for 10 minutes at 14000 rpm, an aliquot of the supernatant was diluted with water, filtered with 0.45 μm syringe filters and injected in HPLC-UV or in LC-MS/MS. The percentages of amount remaining at the various times of incubation with respect to initial amount were calculated. The half-life in plasma was also calculated.

| SMILES | IC50 [1] [µM] | IC50 [2] [µM] | residual percentage in rat S9 fraction [3] [%] | residual percentage in rat plasma [4] [%] |
| --- | --- | --- | --- | --- |
| Cn1c(Sc2ccc(C(=O)NO)cc2)nnc1C1CCN(C(=O)OC(C)(C)C)CC1 [comp. 82, tert-butyl 4-[5-[4-(hydroxycarbamoyl)phenyl]sulfanyl-4-methyl-1,2,4-triazol-3-yl]piperidine-1-carboxylate] | 0.027 | 6.5 | – | – |
| COc1ccc(C2(c3nnc(Sc4c(F)cc(C(=O)NO)cc4F)n3C)CCCCC2)cc1 [comp. 103, 3,5-difluoro-4-[[5-[1-(4-methoxyphenyl)cyclohexyl]-4-methyl-1,2,4-triazol-3-yl]sulfanyl]benzenecarbohydroxamic acid] | 0.056 | – | 5 | 79 |
| O=C(NO)c1cc(F)c(Cn2nnnc2-c2cccc(S(F)(F)(F)(F)F)c2)c(F)c1 [comp. 109, 3,5-difluoro-4-[[5-[3-(pentafluoro-lambda6-sulfanyl)phenyl]tetrazol-1-yl]methyl]benzenecarbohydroxamic acid] | 0.035 | – | 72 | 10 |
| O=C(NO)c1ccc(Cn2nnc(-c3ccc(S(F)(F)(F)(F)F)cc3)n2)cc1 [comp. 110, 4-[[5-[4-(pentafluoro-lambda6-sulfanyl)phenyl]tetrazol-2-yl]methyl]benzenecarbohydroxamic acid] | 0.025 | – | 16 | 92 |
| O=C(NO)c1cc(F)c(Sc2nnc(CN3CCCCC3)n2-c2ccc(F)cc2)c(F)c1 [comp. 115, 3,5-difluoro-4-[[4-(4-fluorophenyl)-5-(1-piperidylmethyl)-1,2,4-triazol-3-yl]sulfanyl]benzenecarbohydroxamic acid] | 0.122 | – | 57 | 73 |
| O=C(NO)c1cc(F)c(Sc2nnc(N3CCCC3)n2Cc2ccco2)c(F)c1 [comp. 116, 3,5-difluoro-4-[[4-(2-furylmethyl)-5-pyrrolidin-1-yl-1,2,4-triazol-3-yl]sulfanyl]benzenecarbohydroxamic acid] | 0.025 | – | 65 | 78 |
| O=C(NO)c1cc(F)c(Sc2nnc(N3CCOCC3)n2Cc2ccccc2)c(F)c1 [comp. 117, 4-[(4-benzyl-5-morpholino-1,2,4-triazol-3-yl)sulfanyl]-3,5-difluoro-benzenecarbohydroxamic acid] | 0.017 | – | 88 | 82 |
| O=C(NO)c1cc(F)c(Cn2nnnc2Cc2ccccn2)c(F)c1.O=C(O)C(F)(F)F [comp. 135, 3,5-difluoro-4-[[5-(2-pyridylmethyl)tetrazol-1-yl]methyl]benzenecarbohydroxamic acid;2,2,2-trifluoroacetic acid] | 0.093 | – | 96 | 78 |
| Cc1nc2ccc(F)cc2cc1-c1nnc(Sc2c(F)cc(C(=O)NO)cc2F)n1C [comp. 137, 3,5-difluoro-4-[[5-(6-fluoro-2-methyl-3-quinolyl)-4-methyl-1,2,4-triazol-3-yl]sulfanyl]benzenecarbohydroxamic acid] | 0.014 | – | 52 | 100 |
| O=C(NO)c1cc(F)c(Sc2nnc(-c3cnccn3)n2Cc2ccco2)c(F)c1 [comp. 139, 3,5-difluoro-4-[[4-(2-furylmethyl)-5-pyrazin-2-yl-1,2,4-triazol-3-yl]sulfanyl]benzenecarbohydroxamic acid] | 0.018 | – | 40 | 90 |
| O=C(NO)c1cc(F)c(Sc2nnc(-c3ccccn3)n2Cc2ccco2)c(F)c1 [comp. 140, 3,5-difluoro-4-[[4-(2-furylmethyl)-5-(2-pyridyl)-1,2,4-triazol-3-yl]sulfanyl]benzenecarbohydroxamic acid] | 0.014 | – | 12 | 85 |
| O=C(NO)c1cc(F)c(Sc2nnc(-c3ccccc3F)n2Cc2ccco2)c(F)c1 [comp. 145, 3,5-difluoro-4-[[5-(2-fluorophenyl)-4-(2-furylmethyl)-1,2,4-triazol-3-yl]sulfanyl]benzenecarbohydroxamic acid] | 0.016 | – | 7 | 79 |
| Cn1c(Sc2c(F)cc(C(=O)NO)cc2F)nnc1-c1cccnc1 [comp. 153, 3,5-difluoro-4-[[4-methyl-5-(3-pyridyl)-1,2,4-triazol-3-yl]sulfanyl]benzenecarbohydroxamic acid] | 0.025 | – | 91 | 76 |
| COC(=O)c1ccc(Cc2nnnn2Cc2c(F)cc(C(=O)NO)cc2F)cc1 [comp. 155, methyl 4-[[1-[[2,6-difluoro-4-(hydroxycarbamoyl)phenyl]methyl]tetrazol-5-yl]methyl]benzoate] | 0.172 | 22.7 | – | – |
| O=C(O)c1ccc(Cc2nnn(Cc3ccc(C(=O)NO)cc3)n2)cc1 [comp. 158, 4-[[2-[[4-(hydroxycarbamoyl)phenyl]methyl]tetrazol-5-yl]methyl]benzoic acid] | 0.231 | 16.9 | – | – |
| O=C(O)c1ccc(Cc2nnnn2Cc2ccc(C(=O)NO)cc2)cc1 [comp. 159, 4-[[1-[[4-(hydroxycarbamoyl)phenyl]methyl]tetrazol-5-yl]methyl]benzoic acid] | 1.37 | 16.9 | – | – |
| O=C(O)c1ccc(Cc2nnn(Cc3c(F)cc(C(=O)NO)cc3F)n2)cc1 [comp. 160, 4-[[2-[[2,6-difluoro-4-(hydroxycarbamoyl)phenyl]methyl]tetrazol-5-yl]methyl]benzoic acid] | 0.115 | 16.9 | – | – |
| O=C(O)c1ccc(Cc2nnnn2Cc2c(F)cc(C(=O)NO)cc2F)cc1 [comp. 161, 4-[[1-[[2,6-difluoro-4-(hydroxycarbamoyl)phenyl]methyl]tetrazol-5-yl]methyl]benzoic acid] | 0.327 | 16.9 | – | – |
| O=C(O)c1ccc(-c2nnn(Cc3ccc(C(=O)NO)cc3)n2)nc1 [comp. 162, 6-[2-[[4-(hydroxycarbamoyl)phenyl]methyl]tetrazol-5-yl]pyridine-3-carboxylic acid] | 0.138 | 16.9 | – | – |
| O=C(O)c1cccc(-c2nnn(Cc3ccc(C(=O)NO)cc3)n2)c1 [comp. 163, 3-[2-[[4-(hydroxycarbamoyl)phenyl]methyl]tetrazol-5-yl]benzoic acid] | 0.012 | 49 | – | – |
| Nc1ccc(-c2nnnn2Cc2ccc(C(=O)NO)cc2)cc1 [comp. 170, 4-[[5-(4-aminophenyl)tetrazol-1-yl]methyl]benzenecarbohydroxamic acid] | 0.008 | 61.4 | – | – |
